Among the data in US20250320252A1 (The Scripps Research Institute, priority 2021, published 2025) are EC50 values, retold here.

Like-named read-outs stand apart in the source and are kept apart here. Numbered stars: 1 amine (or outer) side, 2 acyl side, 3 side chain; on linkers, the order of the positions; unused ones are H or OH. Bridge positions count the residues as written; N and C are the ends. Square brackets hold non-standard residues; d marks the D form. Peptide text beside a SMILES is read from it. X1 = O=C(O)CCCCCCCCCCCCCCCCC(=O)N[C@@H](CCCCNC(=O)CCOCCOCCNC(=O)CCOCCOCCNC(=O)CCC(=O)N(CCNC(=O)C[*:1])CCNC(=O)C[*:2])C(=O)O; Aib = CC(C)(N)C(=O)O

Assay [1] has as its target T1, human GLP-1R (Homo sapiens, UniProt P43220).
T1 construct: expressed in transfected cells
The assay can be described thus: In vitro receptor activation reporter assay (CRE-Luc), HEK293-GLP-1R-CRE. Type of assay: cell-based.
Procedure: The EC50 of each peptide was determined using GraphPad Prism 6 software (GraphPad, San Diego, CA).
HEK293 cells were infected with lentivirus encoding firefly luciferase gene under the control of cAMP responsive element (CRE) promoter (Qiagen, The Netherlands) and then were selected using 1 g/mL puromycin (Life Technologies, Carlsbad) for 1 week. The surviving cells (referred to as CRE-HEK293) were expanded and then transfected with a G418 selective mammalian expression plasmid encoding human GLP-1R. In brief, GLP-1R plasmid was transfected into CRE-HEK293 cells using Lipofectamine 2000 and selected with 400 g/mL Geneticin (Life Technologies, Carlsbad, CA). Single colony stable cell line overexpressing CRE-luciferase and GLP1R was then established for in vitro activity assay.

Assay [2] concerns the target T2, human GIPR (Homo sapiens, UniProt P48546).
T2 construct: expressed in transfected cells
T2 sequence (P48546 22-466): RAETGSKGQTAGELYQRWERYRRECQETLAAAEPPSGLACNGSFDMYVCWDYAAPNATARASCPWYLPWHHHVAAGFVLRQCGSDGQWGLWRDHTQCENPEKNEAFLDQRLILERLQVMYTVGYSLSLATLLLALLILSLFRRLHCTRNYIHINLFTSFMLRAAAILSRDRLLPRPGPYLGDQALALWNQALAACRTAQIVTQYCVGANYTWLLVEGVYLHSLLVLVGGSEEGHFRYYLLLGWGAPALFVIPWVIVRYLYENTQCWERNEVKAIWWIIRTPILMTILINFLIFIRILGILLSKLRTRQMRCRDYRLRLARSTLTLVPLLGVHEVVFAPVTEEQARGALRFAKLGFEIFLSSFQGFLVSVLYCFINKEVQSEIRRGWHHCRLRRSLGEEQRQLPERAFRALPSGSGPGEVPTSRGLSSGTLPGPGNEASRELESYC
The experiment in a line: In vitro receptor activation reporter assay (CRE-Luc), HEK293-GIPR-CRE. It counts as cell-based.

Setting [3] is: Table 8, read-out: EC50 [nM] GLP1R.
The mark [4] stands for this setting: Table 8, read-out: EC50 [nM] GIPR.
The mark [5] stands for this setting: unnumbered table (Table 10), average of runs, read-out: GIPR (nM) [EC50] average.
The mark [6] stands for this setting: unnumbered table (Table 10), run 02/19, read-out: GIPR (nM) [EC50] 02/19.
The mark [7] stands for this setting: unnumbered table (Table 10), run 03/25, read-out: GIPR (nM) [EC50] 03/25.
The mark [8] stands for this setting: unnumbered table (Table 10), run 03/26, read-out: GIPR (nM) [EC50] 03/26.

T1 sequence (P43220 24-463): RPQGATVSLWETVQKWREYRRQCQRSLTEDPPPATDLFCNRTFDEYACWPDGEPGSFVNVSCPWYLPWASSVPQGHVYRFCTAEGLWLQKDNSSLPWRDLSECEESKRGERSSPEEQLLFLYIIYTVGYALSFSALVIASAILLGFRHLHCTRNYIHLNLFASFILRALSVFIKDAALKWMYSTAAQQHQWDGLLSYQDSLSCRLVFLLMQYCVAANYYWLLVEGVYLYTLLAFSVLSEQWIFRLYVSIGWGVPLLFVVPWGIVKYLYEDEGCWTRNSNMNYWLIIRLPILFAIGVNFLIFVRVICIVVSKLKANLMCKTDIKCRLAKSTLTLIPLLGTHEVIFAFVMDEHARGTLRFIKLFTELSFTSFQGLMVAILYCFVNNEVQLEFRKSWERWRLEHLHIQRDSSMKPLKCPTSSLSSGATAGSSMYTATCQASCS

`CC[C@H](C)[C@H](NC(=O)[C@H](CC(C)C)NC(=O)[C@H](Cc1c[nH]c2ccccc12)NC(=O)[C@H](CC(N)=O)NC(=O)[C@@H](NC(=O)[C@H](Cc1ccccc1)NC(=O)[C@@H]1CSCC(=O)NCCN(C(=O)CCC(=O)NCCOCCOCCC(=O)NCCOCCOCCC(=O)NCCCC[C@H](NC(=O)CCCCCCCCCCCCCCCCC(=O)O)C(=O)O)CCNC(=O)CSC[C@H](NC(=O)[C@H](Cc2ccc(O)cc2)NC(=O)[C@@H](NC(=O)[C@H](CO)NC(=O)[C@@H](NC(=O)[C@H](CC(=O)O)NC(=O)[C@H](CO)NC(=O)[C@@H](NC(=O)[C@H](Cc2ccccc2)NC(=O)[C@@H](NC(=O)CNC(=O)[C@H](CCC(=O)O)NC(=O)C(C)(C)NC(=O)[C@@H](N)Cc2ccc(O)cc2)[C@@H](C)O)[C@@H](C)CC)C(C)C)[C@@H](C)CC)C(=O)N[C@@H](CC(=O)O)C(=O)N[C@@H](CCCCN)C(=O)N[C@@H](CCC(N)=O)C(=O)N[C@@H](C)C(=O)N[C@@H](C)C(=O)NC(C)(C)C(=O)N1)C(C)C)C(=O)N[C@@H](C)C(=O)NCC(=O)NCC(=O)N1CCC[C@H]1C(=O)N[C@@H](CO)C(=O)N[C@@H](CO)C(=O)NCC(=O)N[C@@H](C)C(=O)N1CCC[C@H]1C(=O)N1CCC[C@H]1C(=O)N1CCC[C@H]1C(=O)N[C@@H](CO)C(N)=O` [7I, 10V, 27I, C(14-21) - L5A, YAibEGT-FISDV-SIYXD-KQAAAib-XFVNW-LIAGG-PSSGA-PPPS-NH2 (where each X is C)] (H-Y[Aib]EGTFISDVSIYCDKQAA[Aib]CFVNWLIAGGPSSGAPPPS-NH2; linker 14-21 via X1): the EC50 worked out at 83.9 nM in assay [1] (setting [3]) and 12.5 nM in assay [2] (setting [4]).

`CC[C@H](C)[C@H](NC(=O)[C@H](CC(C)C)NC(=O)[C@H](Cc1c[nH]c2ccccc12)NC(=O)[C@H](CC(N)=O)NC(=O)[C@@H](NC(=O)[C@H](Cc1ccccc1)NC(=O)[C@@H]1CSCC(=O)NCCN(C(=O)CCC(=O)NCCOCCOCCC(=O)NCCOCCOCCC(=O)NCCCC[C@H](NC(=O)CCCCCCCCCCCCCCCCC(=O)O)C(=O)O)CCNC(=O)CSC[C@H](NC(=O)[C@H](Cc2ccc(O)cc2)NC(=O)[C@@H](NC(=O)[C@H](CO)NC(=O)[C@H](Cc2ccc(O)cc2)NC(=O)[C@H](CC(=O)O)NC(=O)[C@H](CO)NC(=O)[C@@H](NC(=O)[C@H](Cc2ccccc2)NC(=O)[C@@H](NC(=O)CNC(=O)[C@H](CCC(=O)O)NC(=O)C(C)(C)NC(=O)[C@@H](N)Cc2ccc(O)cc2)[C@@H](C)O)[C@@H](C)O)[C@@H](C)CC)C(=O)N[C@@H](CC(=O)O)C(=O)N[C@@H](CCCCN)C(=O)N[C@@H](CCC(N)=O)C(=O)N[C@@H](C)C(=O)N[C@@H](C)C(=O)NC(C)(C)C(=O)N1)C(C)C)C(=O)N[C@@H](C)C(=O)NCC(=O)NCC(=O)N1CCC[C@H]1C(=O)N[C@@H](CO)C(=O)N[C@@H](CO)C(=O)NCC(=O)N[C@@H](C)C(=O)N1CCC[C@H]1C(=O)N1CCC[C@H]1C(=O)N1CCC[C@H]1C(=O)N[C@@H](CO)C(N)=O` [27I, C(14-21) - L5A, YAibEGT-FTSDY-SIYXD-KQAAAib-XFVNW-LIAGG-PSSGA-PPPS-NH2 (where each X is C)]: the EC50 is 0.04 nM in assay [1] (setting [3]) and 0.03 nM in assay [2] (setting [4]).

As for `CC[C@H](C)[C@H](NC(=O)[C@H](CO)NC(=O)[C@H](Cc1ccc(O)cc1)NC(=O)[C@H](CC(=O)O)NC(=O)[C@H](CO)NC(=O)[C@@H](NC(=O)[C@H](Cc1ccccc1)NC(=O)[C@@H](NC(=O)CNC(=O)[C@H](CCC(=O)O)NC(=O)C(C)(C)NC(=O)[C@@H](N)Cc1ccc(O)cc1)[C@@H](C)O)[C@@H](C)O)C(=O)N[C@@H](Cc1ccc(O)cc1)C(=O)N[C@H]1CSCC(=O)NCCN(C(=O)CCC(=O)NCCOCCOCCC(=O)NCCOCCOCCC(=O)NCCCC[C@H](NC(=O)CCCCCCCCCCCCCCCCCCC(=O)O)C(=O)O)CCNC(=O)CSC[C@@H](C(=O)N[C@@H](Cc2ccccc2)C(=O)N[C@H](C(=O)N[C@@H](CC(N)=O)C(=O)N[C@@H](Cc2c[nH]c3ccccc23)C(=O)N[C@@H](CC(C)C)C(=O)N[C@@H](CC(C)C)C(=O)N[C@@H](C)C(=O)NCC(=O)NCC(=O)N2CCC[C@H]2C(=O)N[C@@H](CO)C(=O)N[C@@H](CO)C(=O)NCC(=O)N[C@@H](C)C(=O)N2CCC[C@H]2C(=O)N2CCC[C@H]2C(=O)N2CCC[C@H]2C(=O)N[C@@H](CO)C(N)=O)C(C)C)NC(=O)C(C)(C)NC(=O)[C@H](C)NC(=O)[C@H](C)NC(=O)[C@H](CCC(N)=O)NC(=O)[C@H](CCCCN)NC(=O)[C@H](CC(=O)O)NC1=O` [C(14-21) - C20L5A, YAibEGT-FTSDY-SIYXD-KQAAAib-XFVNW-LLAGG-PSSGA-PPPS-NH2 (where each X is C)], the EC50 in assay [1] (setting [3]) is 0.2 nM; in assay [2] (setting [4]), 0.05 nM; in assay [2] (setting [5]) it was 0.05 nM; in assay [2] (setting [6]), 0.07 nM; in assay [2] (setting [7]), 0.04 nM; in assay [2] (setting [8]), 0.04 nM.

On to `CC[C@H](C)[C@H](NC(=O)[C@H](CO)NC(=O)[C@H](Cc1ccc(O)cc1)NC(=O)[C@H](CC(=O)O)NC(=O)[C@H](CO)NC(=O)[C@@H](NC(=O)[C@H](Cc1ccccc1)NC(=O)[C@@H](NC(=O)CNC(=O)[C@H](CCC(=O)O)NC(=O)C(C)(C)NC(=O)[C@@H](N)Cc1ccc(O)cc1)[C@@H](C)O)[C@@H](C)O)C(=O)N[C@@H](Cc1ccc(O)cc1)C(=O)N[C@@H](CC(C)C)C(=O)N[C@@H](CC(=O)O)C(=O)N[C@@H](CCCCN)C(=O)N[C@H]1CSCC(=O)NCCN(C(=O)CCC(=O)NCCOCCOCCC(=O)NCCOCCOCCC(=O)NCCCC[C@H](NC(=O)CCCCCCCCCCCCCCCCCCC(=O)O)C(=O)O)CCNC(=O)CSC[C@@H](C(=O)N[C@@H](Cc2c[nH]c3ccccc23)C(=O)N[C@@H](CC(C)C)C(=O)N[C@@H](CC(C)C)C(=O)N[C@@H](C)C(=O)NCC(=O)NCC(=O)N2CCC[C@H]2C(=O)N[C@@H](CO)C(=O)N[C@@H](CO)C(=O)NCC(=O)N[C@@H](C)C(=O)N2CCC[C@H]2C(=O)N2CCC[C@H]2C(=O)N2CCC[C@H]2C(=O)N[C@@H](CO)C(N)=O)NC(=O)[C@H](C(C)C)NC(=O)[C@H](Cc2ccccc2)NC(=O)[C@H](CCC(=O)O)NC(=O)C(C)(C)NC(=O)[C@H](C)NC(=O)[C@H](C)NC1=O` [C(17-24) - C20L5A, YAibEGT-FTSDY-SIYLD-KXAAAib-EFVXW-LLAGG-PSSGA-PPPS-NH2 (where each X is C)], for which the EC50 in assay [1] (Table 9, read-out: EC50 [nM] GLP1R) turned out to be 0.11 nM; in assay [1] (unnumbered table (Table 10), average of runs, read-out: GLP1R (nM) [EC50] average), 0.09 nM; in assay [1] (unnumbered table (Table 10), run 02/19, read-out: GLP1R (nM) [EC50] 02/19), 0.07 nM; in assay [1] (unnumbered table (Table 10), run 3/25, read-out: GLP1R (nM) [EC50] 3/25) it was 0.1 nM; in assay [1] (unnumbered table (Table 10), run 03/26, read-out: GLP1R (nM) [EC50] 03/26), 0.09 nM; in assay [2] (Table 9, read-out: EC50 [nM] GIPR) it was 0.05 nM. The EC50 amounted to 0.03 nM in assay [2] (setting [5]), 0.04 nM in assay [2] (setting [6]), 0.02 nM in assay [2] (setting [7]) and 0.03 nM in assay [2] (setting [8]).
